According to patent US20200247800A1, “SUBSTITUTED BICYCLIC HETEROCYCLIC COMPOUNDS AS NADPH OXIDASE INHIBITORS” (Glenmark Pharmaceuticals S.A., priority 2017, published 2020):

Molecular target: T1, human NOX4 (Homo sapiens, UniProt Q9NPH5)
T1 construct: expressed in transfected cells; membrane fraction used
T1 sequence (Q9NPH5 1-578): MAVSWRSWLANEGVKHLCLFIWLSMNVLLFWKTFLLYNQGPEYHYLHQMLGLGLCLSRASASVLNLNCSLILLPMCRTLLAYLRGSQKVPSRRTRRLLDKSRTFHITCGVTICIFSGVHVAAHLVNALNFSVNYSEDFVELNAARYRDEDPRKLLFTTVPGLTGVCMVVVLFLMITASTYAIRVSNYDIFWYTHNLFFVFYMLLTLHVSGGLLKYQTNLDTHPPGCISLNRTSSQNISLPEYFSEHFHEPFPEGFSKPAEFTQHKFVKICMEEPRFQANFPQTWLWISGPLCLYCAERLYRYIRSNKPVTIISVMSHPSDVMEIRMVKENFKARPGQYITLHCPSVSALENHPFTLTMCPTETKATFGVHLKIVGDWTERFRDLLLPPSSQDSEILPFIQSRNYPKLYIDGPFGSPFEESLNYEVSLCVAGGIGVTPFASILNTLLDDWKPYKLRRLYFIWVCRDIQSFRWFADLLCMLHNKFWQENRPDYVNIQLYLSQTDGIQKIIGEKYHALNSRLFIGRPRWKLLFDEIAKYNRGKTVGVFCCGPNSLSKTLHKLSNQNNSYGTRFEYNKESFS
T1 sequence (P13498 1-195 partner): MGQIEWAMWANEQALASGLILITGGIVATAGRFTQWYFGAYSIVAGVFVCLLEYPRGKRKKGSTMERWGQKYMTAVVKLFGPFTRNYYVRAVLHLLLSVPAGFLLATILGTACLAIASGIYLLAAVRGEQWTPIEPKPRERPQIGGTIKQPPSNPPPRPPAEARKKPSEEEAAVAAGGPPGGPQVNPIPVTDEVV
Assay: Cell free membrane based in vitro NOX4 assay: H2O2 production by membranes expressing human NOX4, measured with Amplex Red
Type: biochemical
Settings: for inhibition at 1 µM: 1.0 μM compound, read-out: Percentage inhibition at 1.0 μM; for inhibition at 10 µM: 10.0 μM compound, read-out: Percentage inhibition at 10.0 μM; for IC50: class symbols
How it was run: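 IC50 came from concentration-response curves fitted as % of the inhibitor-free maximum. H2O2 formation was monitored for 10 min via Amplex Red/HRP fluorescence (544/590 nm) after NADPH start. Membranes from a stable hNOX4/HEK line had 20 min exposure to inhibitor beforehand at pH 7.4.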

Row | SMILES | inhibition at 1 µM | inhibition at 10 µM | IC50
1 | Cc1nn(C2CCC2)c2[nH]c(-c3ccccc3Cl)c(O)c(=O)c12 [Example 144, 6-(2-Chlorophenyl)-1-cyclobutyl-5-hydroxy-3-methyl-1H-pyrazolo[3,4-b]pyridin-4(7H)-one] | 83.6% | 63.8% | 50 to 100 nM
2 | Cn1nc(Cc2ccccc2Cl)c2c(=O)c(O)c(-c3ccccc3Cl)[nH]c21 [Example 145, 3-(2-Chlorobenzyl)-6-(2-chlorophenyl)-5-hydroxy-1-methyl-1H-pyrazolo[3,4-b]pyridin-4(7H)-one] | 90% | 93.2% | > 150 nM
3 | CCc1nn(CCN2CCOCC2)c2[nH]c(-c3ccccc3Cl)c(O)c(=O)c12 [Example 146, 6-(2-Chlorophenyl)-3-ethyl-5-hydroxy-1-(2-morpholinoethyl)-1H-pyrazolo[3,4-b]pyridin-4(7H)-one] | 94% | 81.8% | 100 to 150 nM
4 | Cc1nn(CCCN2CCOCC2)c2[nH]c(-c3ccccc3Cl)c(O)c(=O)c12 [Example 147, 6-(2-Chlorophenyl)-5-hydroxy-3-methyl-1-(3-morpholinopropyl)-1H-pyrazolo[3,4-b]pyridin-4(7H)-one] | 94.3% | 64.9% | 100 to 150 nM
5 | Cc1nn(CCN2C[C@@H](C)O[C@@H](C)C2)c2[nH]c(-c3ccccc3Cl)c(O)c(=O)c12 [Example 148, 6-(2-Chlorophenyl)-1-(2-((2S,6R)-2,6-dimethylmorpholino)ethyl)-5-hydroxy-3-methyl-1H-pyrazolo[3,4-b]pyridin-4(7H)-one] | 94.3% | 85.3% | > 150 nM
6 | Cc1nn(CCN2CCCCC2)c2[nH]c(-c3ccccc3Cl)c(O)c(=O)c12 [Example 149, 6-(2-Chlorophenyl)-5-hydroxy-3-methyl-1-(2-(piperidin-1-yl)ethyl)-1H-pyrazolo[3,4-b]pyridin-4(7H)-one] | 79.1% | 74.7% | > 150 nM
7 | O=c1c(O)c(-c2ccccc2Cl)[nH]c2c1c(C(F)(F)F)nn2CCN1CCOCC1 [Example 150, 6-(2-Chlorophenyl)-5-hydroxy-1-(2-morpholinoethyl)-3-(trifluoromethyl)-1H-pyrazolo[3,4-b]pyridin-4(7H)-one] | 67.1% | 84.4% | > 150 nM
8 | Cc1nn(CCN2CCCC2)c2[nH]c(-c3ccccc3Cl)c(O)c(=O)c12 [Example 151, 6-(2-Chlorophenyl)-5-hydroxy-3-methyl-1-(2-(pyrrolidin-1-yl)ethyl)-1H-pyrazolo[3,4-b]pyridin-4(7H)-one] | 81.1% | 76.2% | > 150 nM
9 | Cc1nn(CCN2CCOCC2)c2[nH]c(-c3ccccc3C(F)(F)F)c(O)c(=O)c12 [Example 152, 5-Hydroxy-3-methyl-1-(2-morpholinoethyl)-6-(2-(trifluoromethyl)phenyl)-1H-pyrazolo[3,4-b]pyridin-4(7H)-one] | 93.5% | 89.9% | 100 to 150 nM
10 | Cc1nn(CCN2CCOCC2)c2[nH]c(-c3cccc(C(F)(F)F)c3F)c(O)c(=O)c12 [Example 153, 6-(2-fluoro-3-(trifluoromethyl)phenyl)-5-hydroxy-3-methyl-1-(2-morpholinoethyl)-1H-pyrazolo[3,4-b]pyridin-4(7H)-one] | 100% | 93% | > 150 nM
11 | CN(C)CCn1nc(C(F)(F)F)c2c(=O)c(O)c(-c3ccccc3Cl)[nH]c21 [Example 154, 6-(2-chlorophenyl)-1-(2-(dimethylamino)ethyl)-5-hydroxy-3-(trifluoromethyl)-1H-pyrazolo[3,4-b]pyridin-4(7H)-one] | 99.6% | 100% | > 150 nM
12 | Cc1nn(CCN2CCN(C)CC2)c2[nH]c(-c3ccccc3Cl)c(O)c(=O)c12 [Example 155, 6-(2-chlorophenyl)-5-hydroxy-3-methyl-1-(2-(4-methylpiperazin-1-yl)ethyl)-1H-pyrazolo[3,4-b]pyridin-4(7H)-one] | 100% | 93.3% | < 50 nM
13 | CCc1nn(CCN2CCOCC2)c2[nH]c(-c3c(F)cccc3F)c(O)c(=O)c12 [Example 156, 6-(2,6-difluorophenyl)-3-ethyl-5-hydroxy-1-(2-morpholinoethyl)-1H-pyrazolo[3,4-b]pyridin-4(7H)-one] | 97.4% | 100% | < 50 nM
14 | CCc1nn(CCn2cccn2)c2[nH]c(-c3ccccc3Cl)c(O)c(=O)c12 [Example 157, 1-(2-(1H-pyrazol-1-yl)ethyl)-6-(2-chlorophenyl)-3-ethyl-5-hydroxy-1H-pyrazolo[3,4-b]pyridin-4(7H)-one] | 95.2% | 98.6% | 50 to 100 nM
15 | CCc1nn(CCn2cccn2)c2[nH]c(-c3c(F)cccc3F)c(O)c(=O)c12 [Example 158, 1-(2-(1H-pyrazol-1-yl)ethyl)-6-(2,6-difluorophenyl)-3-ethyl-5-hydroxy-1H-pyrazolo[3,4-b]pyridin-4(7H)-one] | 100% | 100% | < 50 nM
16 | CCc1nn(C)c2[nH]c(-c3ccc(F)c(C(F)(F)F)c3)c(O)c(=O)c12 [Example 159, 3-Ethyl-6-(4-fluoro-3-(trifluoromethyl)phenyl)-5-hydroxy-1-methyl-1H-pyrazolo[3,4-b]pyridine-4(7H)-one] | 71.9% |  | > 150 nM
17 | CCc1nn(C)c2[nH]c(-c3cccc(C(F)(F)F)c3F)c(O)c(=O)c12 [Example 160, 3-Ethyl-6-(2-fluoro-3-(trifluoromethyl)phenyl)-5-hydroxy-1-methyl-1H-pyrazolo[3,4-b]pyridine-4(7H)-one] | 80.7% | 68.9% | > 150 nM
18 | CCc1nn(C)c2[nH]c(-c3ccc(F)cc3F)c(O)c(=O)c12 [Example 161, 6-(2,4-Difluorophenyl)-3-ethyl-5-hydroxy-1-methyl-1H-pyrazolo[3,4-b]pyridin-4(7H)-one] | 71.6% |  | > 150 nM
19 | CCc1nn(C)c2[nH]c(-c3cc(F)cc(F)c3)c(O)c(=O)c12 [Example 162, 6-(3,5-Difluorophenyl)-3-ethyl-5-hydroxy-1-methyl-1H-pyrazolo[3,4-b]pyridine-4(7H)-one] | 74.8% |  | > 150 nM
20 | CCc1nn(C)c2[nH]c(-c3cc(F)ccc3F)c(O)c(=O)c12 [Example 163, 6-(2,5-Difluorophenyl)-3-ethyl-5-hydroxy-1-methyl-1H-pyrazolo[3,4-b]pyridine-4(7H)-one] | 72.8% |  | > 150 nM
21 | CCc1nn(CCN2CCOCC2)c2[nH]c(-c3cccc(C(F)(F)F)c3F)c(O)c(=O)c12 [Example 164, 3-Ethyl-6-(2-fluoro-3-(trifluoromethyl)phenyl)-5-hydroxy-1-(2-morpholinoethyl)-1H-pyrazolo[3,4-b]pyridin-4(7H)-one] |  |  | > 150 nM
22 | CCc1nn(CCN2CCN(C)CC2)c2[nH]c(-c3ccccc3Cl)c(O)c(=O)c12 [Example 165, 6-(2-Chlorophenyl)-3-ethyl-5-hydroxy-1-(2-(4-methylpiperazin-1-yl)ethyl)-1H-pyrazolo[3,4-b]pyridine-4(7H)-one] | 99.9% | 80.1% | < 50 nM
23 | CCc1nn(CCN2CCN(C)CC2)c2[nH]c(-c3c(F)cccc3F)c(O)c(=O)c12 [Example 166, 6-(2,6-Difluorophenyl)-3-ethyl-5-hydroxy-1-(2-(4-methylpiperazin-1-yl)ethyl)-1H-pyrazolo[3,4-b]pyridine-4(7H)-one] | 96.4% | 95.5% | < 50 nM
24 | CCc1nn(CCN2CCOCC2=O)c2[nH]c(-c3ccccc3Cl)c(O)c(=O)c12 [Example 167, 4-(2-(6-(2-Chlorophenyl)-3-ethyl-5-hydroxy-4-oxo-4,7-dihydro-1H-pyrazolo[3,4-b]pyridin-1-yl)ethyl)morpholin-3-one] | 86% | 71.8% | 50 to 100 nM
25 | CCc1nn(CCN2CCOCC2=O)c2[nH]c(-c3c(F)cccc3F)c(O)c(=O)c12 [Example 168, 4-(2-(6-(2,6-Difluorophenyl)-3-ethyl-5-hydroxy-4-oxo-4,7-dihydro-1H-pyrazolo[3,4-b]pyridin-1-yl)ethyl)morpholin-3-one] | 94.9% | 93.5% | 50 to 100 nM
26 | Cc1nn(CCN2CCN(C)CC2)c2[nH]c(-c3c(F)cccc3F)c(O)c(=O)c12 [Example 169, 6-(2,6-Difluorophenyl)-5-hydroxy-3-methyl-1-(2-(4-methylpiperazin-1-yl)ethyl)-1H-pyrazolo[3,4-b]pyridin-4(7H)-one] | 83.7% |  | 50 to 100 nM
